Measurements from patent publication US8058264B2, “Pharmaceutical compositions comprising CB1 cannabinoid receptor antagonists and potassium channel openers for the treatment of obesity and related conditions” (Abbott Products GmbH, priority 2004, dated 2011).

Experiments:
fatty Zucker rat = test: Acute oral glucose tolerance test (OGTT) in the fatty Zucker rat; format: in vivo; settings: acute administration (over a period of 1 day)
obese patients = settings: chronic treatment, e.g. over a period of 1 year; cited from earlier work
Kir6.2/SUR1 KATP channel = test: Opening of the Kir6.2/SUR1 KATP channel; format: biochemical

Cc1c(C(=O)NN2CCCCC2)nn(-c2ccc(Cl)cc2Cl)c1-c1ccc(Cl)cc1 [5-(4-chlorophenyl)-1-(2,4-dichlorophenyl)-4-methyl-N-piperidin-1-yl-1H-pyrazole-3-carboxamide]
glucose plasma levels in OGTT (fatty Zucker rat): strong increase in glucose plasma levels
insulin release in OGTT (fatty Zucker rat): significantly reduced inhibition of insulin release
glucose tolerance and insulin resistance in obese patients (obese patients): improve glucose tolerance and insulin resistance
opener activity at the Kir6.2/SUR1 KATP channel (Kir6.2/SUR1 KATP channel): potent opener
